Measured values taken from patent US10407445B2, “Hepatitis C virus inhibitors” (ENANTA PHARMACEUTICALS, INC., priority 2013, dated 2019).

Assays:
Assay type in all cases: cell-based
[1] = tested on: HCV GT 1a replicon; test: HCV replicon assay, stable GT 1a replicon (Renilla luciferase); settings: Hepatitis C virus, GT1A; HCV GT 1a replicon, 72 h; read-out: EC50 1a
Method in brief: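 Huh-7.5 cells stably carrying a GT1a replicon (H77-based) with Renilla luciferase-Neo reporter, 4000 cells/well, sixteen-point half-log compound series, phenol red-free DMEM without G418. Luciferase read after 72 h relative to DMSO-treated cells gives EC50.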

[2] = tested on: HCV GT 3a replicon; test: HCV replicon assay, GT2a chimeric replicon expressing NS5A from GT3a strain S52; settings: Hepatitis C virus, 72 h, read-out: EC50 3a
Method in brief: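 Stable Huh-7.5 lines carried JFH-1 subgenomic replicons with hRluc-Neo reporter, in which NS5A was swapped for GT3a strain S52 or GT2a strain J6 NS5A. Renilla luciferase was read after 72 h relative to DMSO controls.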

[3] = tested on: GT1a replicon encoding NS5A mutation Q30R; test: Transient replication assay, GT1a replicon with NS5A mutation Q30R; settings: Hepatitis C virus, read-out: EC50 1a Q30R

SMILES | EC50 [1] [nM] | EC50 [2] [nM] | EC50 [3] [nM]
COC(=O)N[C@H](C(=O)N1CCC[C@H]1c1nc2ccc(C#Cc3ccc4c(ccc5nc([C@@H]6CCCN6C(=O)[C@@H](NC(=O)OC)C(C)C)[nH]c54)c3)cc2[nH]1)C(C)C [Example 103] | 0.012 | 0.3 | 3
COC(=O)N[C@H](C(=O)N1C[C@]2(CCCOC2)C[C@H]1c1ncc(-c2ccc(-c3ccc4c(ccc5nc([C@@H]6C[C@@H]7COC[C@@H]7N6C(=O)[C@@H](NC(=O)OC)C(C)C)[nH]c54)c3)cc2)[nH]1)C(C)C [Compound 35] | 0.028 | 2 | 0.07
COC(=O)N[C@H](C(=O)N1C[C@]2(CCCCO2)C[C@H]1c1nc(-c2ccc(-c3ccc4c(ccc5nc([C@@H]6CCCN6C(=O)[C@@H](NC(=O)OC)C(C)C)[nH]c54)c3)cc2)c[nH]1)C(C)C [Example 2] | 0.012 | 1 | 0.03
COC(=O)N[C@H](C(=O)N1CCC[C@H]1c1nc2c([nH]1)-c1ccc(-c3ccc4c(ccc5nc([C@@H]6C[C@@]7(CCCOC7)CN6C(=O)[C@@H](NC(=O)OC)C(C)C)[nH]c54)c3)cc1OC2)C(C)C [Compound 25] | 0.027 | 0.6 | 0.2
COC(=O)N[C@H](C(=O)N1C[C@]2(CCCOC2)C[C@H]1c1nc2ccc3cc(-c4ccc5c(ccc6nc([C@@H]7C[C@@H]8C[C@@H]8N7C(=O)[C@@H](NC(=O)OC)C(C)C)[nH]c65)c4)ccc3c2[nH]1)C(C)C [Compound 21] | 0.02 | 0.09 | 0.1
COC(=O)N[C@H](C(=O)N1C[C@]2(CCCOC2)C[C@H]1c1nc2ccc3cc(-c4ccc5c(ccc6nc([C@@H]7C[C@H]8C[C@H]8N7C(=O)[C@@H](NC(=O)OC)C(C)C)[nH]c65)c4)ccc3c2[nH]1)C(C)C [Compound 6] | 0.007 | 0.08 | 0.04
COC(=O)N[C@H](C(=O)N1CCC[C@H]1c1ncc(-c2ccc(-c3ccc4c(ccc5nc([C@@H]6CCCN6C(=O)[C@@H](NC(=O)OC)C(C)C)[nH]c54)c3)cc2)[nH]1)C(C)C [Example 102] | 0.015 | 0.06 | 1
COC(=O)N[C@H](C(=O)N1C[C@]2(CCCOC2)C[C@H]1c1ncc(-c2ccc(-c3ccc4c(ccc5nc([C@@H]6CCCN6C(=O)[C@@H](NC(=O)OC)C(C)C)[nH]c54)c3)cc2)[nH]1)C(C)C [Compound 47] | 0.015 | 0.08 | 0.1
COC(=O)N[C@H](C(=O)N1CCC[C@H]1c1ncc(-c2ccc(-c3ccc4c(c3)OCc3nc([C@@H]5C[C@@]6(CCCOC6)CN5C(=O)[C@@H](NC(=O)OC)C(C)C)[nH]c3-4)cc2)[nH]1)C(C)C [Compound 33] | 0.027 | 0.2 | 0.2
COC(=O)N[C@H](C(=O)N1C[C@@]2(CCOC2)C[C@H]1c1ncc(-c2ccc(-c3ccc4c(ccc5nc([C@@H]6CCCN6C(=O)[C@@H](NC(=O)OC)C(C)C)[nH]c54)c3)cc2)[nH]1)C(C)C [Compound 50] | 0.014 | 10 | 0.4
